# In patent US20020051978A1, “Methods and compositions for the identification, assessment, prevention and therapy of human cancers” (priority 2000, published 2002):
# “And” between values parts separate entries of the source, which are not always exact repeats. Equal values may be shown once. Read-outs that look alike come from different tables or passages of the source.
# What was measured:
# [1] = test system: 60 cancer cell lines (NCI 60 cancer cell line series); test: NCI-DTP in vitro cancer screen, sulforhodamine B (SRB) growth inhibition, 48 hour exposure; type: cell-based, human; parameters: key to sensitivity class Ovarian OVCAR-8 CL6005 / sensitivity class Ovarian SK-OV-3 CL6011 / sensitivity class Prostate DU-145 CL11003 / sensitivity class NSCLC NCI-H522 CL1003 / sensitivity class Ovarian IGROV1 CL6010 / sensitivity class Ovarian OVCAR-4 CL6002 / sensitivity class Prostate PC-3(I) CL11001 / sensitivity class Renal A498 CL9013 / sensitivity class Renal SN12C CL9008: sensitivity class: 1 = Low, 2 = Medium, 3 = High
# Experimental: Cancer Cell Line Preparation. Sixty cancer cell lines were obtained from the National Cancer Institute Developmental Therapeutics Program (NCI-DTP). Procedures for growing cells and testing compounds have been described previously (Scudiero et al., Cancer Res. 1988, 48:4827-4833; Stinson et al., Anticancer Res.; Myers et al., Electrophoresis 1997, 18:647-653). Cells are plated on day 0 at a density individualized for each cell line so that they will generally be sub-confluent at the end of the assay period. On day 1, a compound is added in the format for a duplicate-well, 5-dose, ten-fold interval dose response study.
# No-drug, no-cell and no-growth controls are included. On day 3 the cells are processed for staining with sulforhodamine B (SRB), which reflects the amount of cell mass present at the end of a 48 hour exposure to the test agent. From dose response curves based on the SRB data, various parameters can be determined. The one used in the present study is the G15o, defined as the concentration of compound required to inhibit growth of the cell line by 50%. More precisely, the quantity used in the calculation to be described is the potency measure -log{GI50}.
# Activity database (A). Table IA, consisting of the growth inhibition (GI5o) values for the 60 cell lines and 24 compounds, was created from the NCI-DTP in vitro cancer screen database. This subset of compounds was selected from the larger 23,000 compound database available from the DTP. The compounds were selected on the basis of their known mechanism of action and chemical structure. The average potency—log{GI50} was extracted from the comma-delimited text files available through the Web at http://www.nci.nih.gov/intra/lmp/jnwbio.htmrl. Subsequently, these log{GI5o} values were inspected manually and classified as indicating either Low, Medium or High sensitivity to each compound.
# [2] = test system: 60 cancer cell lines (NCI 60 cancer cell line series); details: cited from earlier work
smiles,measurement,setting,value
CN(Cc1cnc2nc(N)nc(N)c2n1)c1ccc(C(=O)N[C@@H](CCC(=O)O)C(=O)O)cc1 [Methotrexate],"classification of cell line as Low(1), Medium(2) or High(3) sensitivity to compound",[1]; Breast BT-549 (CL5013),1
same,"classification of cell line as Low(1), Medium(2) or High(3) sensitivity to compound",[1]; Breast HS-578T CL5006,1
same,"classification of cell line as Low(1), Medium(2) or High(3) sensitivity to compound",[1]; Breast MCF7/ADRr (CL5002),2
same,"classification of cell line as Low(1), Medium(2) or High(3) sensitivity to compound",[1]; Breast MDA-MB-231 CL5005,1
same,"classification of cell line as Low(1), Medium(2) or High(3) sensitivity to compound",[1]; Breast T-47D (CL5014),1
same,"classification of cell line as Low(1), Medium(2) or High(3) sensitivity to compound",[1]; CNS SF-268 CL12014,2
same,"classification of cell line as Low(1), Medium(2) or High(3) sensitivity to compound",[1]; CNS SF-295 CL12015,3
same,"classification of cell line as Low(1), Medium(2) or High(3) sensitivity to compound",[1]; CNS SF-539 CL12016,3
same,"classification of cell line as Low(1), Medium(2) or High(3) sensitivity to compound",[1]; CNS U251(I) CL12009,2
same,"classification of cell line as Low(1), Medium(2) or High(3) sensitivity to compound",[1]; Colon COLO-250 CL4010,2
same,"classification of cell line as Low(1), Medium(2) or High(3) sensitivity to compound",[1]; Colon HCC-2998 (CL4002),2
same,"classification of cell line as Low(1), Medium(2) or High(3) sensitivity to compound",[1]; Colon HCT-15 CL4015,3
same,"classification of cell line as Low(1), Medium(2) or High(3) sensitivity to compound",[1]; Colon HCT-116 (CL4003),3
same,"classification of cell line as Low(1), Medium(2) or High(3) sensitivity to compound",[1]; Colon KM12 (CL4017),2
same,"classification of cell line as Low(1), Medium(2) or High(3) sensitivity to compound",[1]; Leukemia HL-60(I) (CL7008),2
same,"classification of cell line as Low(1), Medium(2) or High(3) sensitivity to compound",[1]; Leukemia K562(I) CL7005,3
same,"classification of cell line as Low(1), Medium(2) or High(3) sensitivity to compound",[1]; Leukemia RPMI-8226(I) (CL7010),2
same,"classification of cell line as Low(1), Medium(2) or High(3) sensitivity to compound",[1]; Melanoma LOX IMVI CL10001,3
same,"classification of cell line as Low(1), Medium(2) or High(3) sensitivity to compound",[1]; Melanoma SK-MEL-2 (CL10005),1
same,"classification of cell line as Low(1), Medium(2) or High(3) sensitivity to compound",[1]; Melanoma SK-MEL-5 (CL10007),2
same,"classification of cell line as Low(1), Medium(2) or High(3) sensitivity to compound",[1]; Melanoma SK-MEL-28 (CL10008),1
same,"classification of cell line as Low(1), Medium(2) or High(3) sensitivity to compound",[1]; Melanoma UACC-62 (CL10020),3
same,"classification of cell line as Low(1), Medium(2) or High(3) sensitivity to compound",[1]; NSCLC A549/ATCC (CL1004),3
same,"classification of cell line as Low(1), Medium(2) or High(3) sensitivity to compound",[1]; NSCLC EKVX (CL1008),1
same,"classification of cell line as Low(1), Medium(2) or High(3) sensitivity to compound",[1]; NSCLC HOP-62 (CL1026),2
same,"classification of cell line as Low(1), Medium(2) or High(3) sensitivity to compound",[1]; NSCLC HOP-92 (CL1029),1
same,"classification of cell line as Low(1), Medium(2) or High(3) sensitivity to compound",[1]; NSCLC NCI-H226 CL1013,1
same,sensitivity class NSCLC NCI-H23(I) CL1001,"[1]; cell line NSCLC NCI-H23(I), CL1001",2
same,sensitivity class NSCLC NCI-H332M CL1017,"[1]; cell line NSCLC NCI-H332M, CL1017",2
same,sensitivity class NSCLC NCI-H460 CL1021,"[1]; cell line NSCLC NCI-H460, CL1021",3
same,sensitivity class Ovarian IGROV1 CL6010,"[1]; cell line Ovarian IGROV1, CL6010",2
same,sensitivity class Ovarian OVCAR-3 CL6001,"[1]; cell line Ovarian OVCAR-3, CL6001",2
same,sensitivity class Ovarian OVCAR-4 CL6002,"[1]; cell line Ovarian OVCAR-4, CL6002",1
same,sensitivity class Ovarian OVCAR-5 CL6003,"[1]; cell line Ovarian OVCAR-5, CL6003",2
same,sensitivity class Prostate DU-145 CL11003,"[1]; cell line Prostate DU-145, CL11003",2
same,sensitivity class Renal A498 CL9013,"[1]; cell line Renal A498, CL9013",1
same,sensitivity class Renal ACHN CL9023,"[1]; cell line Renal ACHN, CL9023",2
same,sensitivity class Renal RXF-393 CL9016,"[1]; cell line Renal RXF-393, CL9016",1
same,sensitivity class Renal SN12C CL9008,"[1]; cell line Renal SN12C, CL9008",3
same,sensitivity class Renal TK10 CL9024,"[1]; cell line Renal TK10, CL9024",1
same,sensitivity class Renal UO-31 CL9004,"[1]; cell line Renal UO-31, CL9004",2
same,-Log (GI50),[2]; Breast MCF7/ADRr (CL5002),7.3 and 7.0
same,-Log (GI50),[2]; CNS SF-268 CL12014,7.5 and 7.3
same,-Log (GI50),[2]; Colon COLO-250 CL4010,6.2 and 6.0
same,-Log (GI50),[2]; Colon HCC-2998 (CL4002),7.0 and 6.9
same,-Log (GI50),[2]; Colon HT29(I) CL4001,7.7 and 7.5
same,-Log (GI50),[2]; Colon KM12 (CL4017),7.4 and 7.3
same,-Log (GI50),[2]; Colon SW-620 (CL4009),7.2 and 7.5
same,-Log (GI50),[2]; Leukemia CCRF-CEM(I) (CL7003),7.4 and 7.5
same,-Log (GI50),[2]; Leukemia HL-60(I) (CL7008),7.4
same,-Log (GI50),[2]; Leukemia MOLT-4 (CL7006),7.6 and 7.5
same,-Log (GI50),[2]; Leukemia RPMI-8226(I) (CL7010),6.9 and 7.1
same,-Log (GI50),[2]; Melanoma M14 (CL10014),7.5
same,-Log (GI50),[2]; Melanoma MALME-3M CL10002,5.4 and 5.5
same,-Log (GI50),[2]; Melanoma SK-MEL-5 (CL10007),7.2 and 7.0
same,-Log (GI50),[2]; Melanoma SK-MEL-28 (CL10008),5.3 and 5.4
same,-Log (GI50),[2]; NSCLC EKVX (CL1008),5.0
same,-Log (GI50),[2]; NSCLC HOP-92 (CL1029),5.1
same,-Log (GI50),[2]; NSCLC NCI-H332M CL1017,6.4 and 6.3
same,-Log (GI50),[2]; Prostate DU-145 CL11003,7.6 and 7.3
same,-Log (GI50),[2]; Renal 786-O CL9018,7.5
